Source: PubChem BioAssay (NCI)
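Tested at 5 concentrations; 48 h exposure; 96-well plates; endpoints linearly interpolated, else capped at highest concentration. TGI is the concentration that stops growth completely.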

Legend:
Assay in all cases: NCI-60 cell line screen, 48 h
A549 NSCLC = test system: A549 NSCLC
HCT-116 colon = test system: HCT-116 colon
UO-31 renal = test system: UO-31 renal
RXF 393 renal = test system: RXF 393 renal
SN12C renal = test system: SN12C renal
BT-549 breast = test system: BT-549 breast
MDA-MB-231 breast = test system: MDA-MB-231 breast
COLO 205 colon = test system: COLO 205 colon
NCI/ADR-RES ovarian = test system: NCI/ADR-RES ovarian
OVCAR-5 ovarian = test system: OVCAR-5 ovarian
T-47D breast = test system: T-47D breast
HCT-15 colon = test system: HCT-15 colon
SR leukemia = test system: SR leukemia
OVCAR-8 ovarian = test system: OVCAR-8 ovarian
RPMI-8226 leukemia = test system: RPMI-8226 leukemia
MOLT-4 leukemia = test system: MOLT-4 leukemia
NCI-H460 lung = test system: NCI-H460 lung
SF-295 CNS = test system: SF-295 CNS
NCI-H522 lung = test system: NCI-H522 lung
HCC-2998 colon = test system: HCC-2998 colon

Row | Compound | TGI (A549 NSCLC) [µM] | TGI (HCT-116 colon) [µM] | TGI (UO-31 renal) [µM] | TGI (RXF 393 renal) [µM] | TGI (SN12C renal) [µM] | TGI (BT-549 breast) [µM] | TGI (MDA-MB-231 breast) [µM] | TGI (COLO 205 colon) [µM] | TGI (NCI/ADR-RES ovarian) [µM] | TGI (OVCAR-5 ovarian) [µM] | TGI (T-47D breast) [µM] | TGI (HCT-15 colon) [µM] | TGI (SR leukemia) [µM] | TGI (OVCAR-8 ovarian) [µM] | TGI (RPMI-8226 leukemia) [µM] | TGI (MOLT-4 leukemia) [µM] | TGI (NCI-H460 lung) [µM] | TGI (SF-295 CNS) [µM] | TGI (NCI-H522 lung) [µM] | TGI (HCC-2998 colon) [µM]
1 | CC(C)CCCC(C)[C@H]1CCC2[C@@H]3CCC4Cc5nc6c(nc5C[C@]4(C)C3CC[C@@]21C)CC1CC[C@@H]2C(CC[C@@]3(C)C2CC[C@@H]3O)[C@@]1(C)C6 (stereo partly drawn) | > 100 | > 100 | > 100 | > 100 | > 100 | > 100 | > 100 | > 100 | > 100 | > 100 | > 100 | > 100 | > 100 | > 100 | > 100 | > 100 | > 100 | > 100 |  | 
2 | COc1ccc2c(C(=O)c3c(C)n(CCN4CCOCC4)c4ccccc34)cccc2c1 | > 100 | > 100 | > 100 | 91.2 | > 100 | 98.1 | 80.2 | 43.4 | 55.9 | > 100 | > 100 | > 100 | > 100 | 59.4 | 83.6 | > 100 | > 100 | 49 | 50.2 | 
3 | CC1(CCCCO)C=CC(S(=O)(=O)c2ccccc2)CC1 (stereo not drawn) | 13.6 | 12.6 | 16.3 | 17 | 23.6 | 27.5 | 16.4 | 14.4 | 12.5 | 17.5 |  | 13.3 | 6.71 | 23.2 | 11 | 14.9 | 13.2 | 24.4 | 10.4 | 19.6
4 | CCCCOc1ccc(S(=O)(=O)/N=C(\N)Nc2ccc(Cl)cc2)cc1 | 45.8 | 30.3 | 34.8 | 32.3 | 30.1 | 32.5 | 29.7 | > 100 | 31.5 | 33.2 | 29.1 | 27.6 | 28.7 | 29.9 | 45.8 | 29.9 | 31.5 | 36.1 | 23 | 
5 | CC(=O)O[C@H]1C[C@@H](OC(C)=O)[C@@](C)(O)[C@@H]2[C@@H](OC(C)=O)[C@@]3(O)[C@H](/C=C(/CCl)[C@H]4O[C@H]4[C@@H](OC(C)=O)[C@@]12C)OC(=O)[C@@H]3C | > 25 | > 25 | > 25 | > 25 | > 25 | > 25 | > 25 | > 25 | > 25 | > 25 | > 25 | > 25 |  | > 25 | > 25 | > 25 | > 25 | > 25 | > 25 | > 25
6 | CCOP(=O)(/C=C/n1cnc2c(=O)n(C(C)=O)c(N)nc21)OCC | > 100 | > 100 |  | > 100 | > 100 | > 100 | > 100 | > 100 | > 100 | > 100 | > 100 | > 100 |  | > 100 | > 100 | > 100 | > 100 | > 100 | > 100 | 
7 | COC(=O)[C@]1(C)CCCC2(C)C3=C(CCC21)CC1(CC3)SCCS1 (stereo partly drawn) | > 10 | > 10 |  |  | > 10 | > 10 | > 10 | > 10 | > 10 |  | > 10 | > 10 | > 10 | > 10 | > 10 | > 10 |  |  | > 10 | > 10
8 | Cc1ccc(C=C(C(=O)O)C(=O)O)o1 | > 100 | > 100 | > 100 | > 100 | > 100 | > 100 | > 100 | > 100 | > 100 | > 100 |  | > 100 | > 100 | > 100 | > 100 | > 100 | > 100 | > 100 | > 100 | > 100
9 | Nc1nc2c(c(=O)[nH]1)NC(CCNc1ccc(C(=O)O)cc1)CN2 (stereo not drawn) | > 100 | > 100 | > 100 | > 100 | > 100 | > 100 | > 100 | > 100 | > 100 | > 100 | > 100 | > 100 | > 100 | > 100 | > 100 | > 100 | > 100 | > 100 | > 100 | 
10 | CC1=CC(=O)c2c(O)c3c(c(O)c2C1=O)C1C(O)C(C3=O)C23C(=O)c4c(O)c(C)cc(O)c4C(O)=C2C(=O)CC(O)C13 (stereo not drawn) | 10.8 | 2.5 |  |  | 5.55 | 17.9 | 9.89 | 4.76 |  | 9.08 | 5.75 | 6.91 | 6.52 | 8.65 |  | 13 | 5.23 | 2.3 |  | 10.2
11 | CC(=O)Oc1ccc2cc(Oc3ccccc3)c(=O)oc2c1 | > 100 | > 100 | > 100 | > 100 | > 100 | > 100 | > 100 |  |  | > 100 | > 100 | > 100 | > 100 | > 100 | > 100 |  | > 100 | > 100 | 70.7 | > 100
12 | CC(N)=O.[Cl][Pt][Cl].[NH-]c1ccn(C2OC(CO)C(O)C2O)c(=O)n1 (stereo not drawn) | > 100 | > 100 | > 100 | > 100 | > 100 | > 100 | > 100 | > 100 | > 100 | > 100 | > 100 | > 100 | > 100 | > 100 | > 100 | > 100 | > 100 | > 100 | > 100 | 
13 | CON(C)C(=O)C(C)NC(=O)OC(C)(C)C (stereo not drawn) | > 100 | > 100 | > 100 | > 100 | > 100 | > 100 |  | > 100 | > 100 | > 100 | > 100 | > 100 | > 100 | > 100 | > 100 | > 100 | > 100 | > 100 |  | > 100
